Source: US10233152B2, “LSD1 inhibitors” (Mirati Therapeutics, Inc., priority 2015, dated 2019)

What was measured:
MV4-11 cells = experiment: Inhibition of LSD1-mediated cell proliferation, CellTiter Glo luminescence assay; conditions: Homo sapiens, MV4-11, 168 h, read-out: Inhibition of LSD1-mediated Cell Proliferation IC50
Protocol: Inhibition of LSD1-mediated cellular proliferation by compounds of Formula (I) or Formula (II) was measured in a CellTiter Glo luminescence assay (Promega Corp), which determines the number of viable cells by quantitating the amount of ATP, using a BMG LabTech CLARIOStar instrument in accordance with the manufacturer's instructions. […] The plates were incubated at 37° C. for four days and thereafter 50 μl fresh medium containing the same concentration of test compound was added. The plates were incubated for an additional three days (Day 7). A baseline measurement, as described below, was taken for a time zero point at Day 0.
At Day 7, the supernatant was removed by aspiration and the plate was allowed to equilibrate to room temperature (˜15 min). The cells were lysed using 45 μl (30 μl for Day 0) of Cell Titer Glo reagent (Promega Corp). The plates were shaken for two minutes and incubated at room temperature for 30 minutes. The degree of inhibition of cell viability was determined using a spectrophotometric readout by measuring the luminescence at 340 nm and the EC50 concentration for each compound was calculated using Graph Pad Prism 4 software.

[1] = target: purified N-terminal truncated human LSD1 enzyme (aa 151-852) (Homo sapiens (Human), UniProt O60341); experiment: LSD1 fluorescence coupling enzymatic assay (horseradish peroxidase/Amplex Red); assay type: biochemical; conditions: 50 nM LSD1, 30 min pre-incubation, histone 3.3 peptide (aa 1-21), 10-point dose-response; read-out: Inhibition of LSD1 Activity IC50
Protocol: Briefly, compounds of the present invention were solubilized in DMSO and a series of 10, three-fold serial dilutions were made for each compound in 15% DMSO. The initial starting concentration for the serial dilutions of each compound was 10 μM.
An aliquot of each serial dilution of test compound was added to a 96 well plate containing 50 nM purified N-truncated LSD1 enzyme (RBC Cat# PDM-11-350), 50 mM Tris-HCl, pH 7.5, 0.05% CHAPS and 1% DMSO in a 10 microliter reaction volume. The plate was pre-incubated at room temperature for 30 min to which 10 M of histone 3.3 peptide (aa 1-21) was added to initiate the enzymatic reaction. The reaction mixture was incubated at room temperature for one hour. […] The IC50 value for each compound was determined from each 10-point dose-response curve using GraphPad Prism 4 software with a sigmodial dose response.

| Structure (SMILES) | IC50 (MV4-11 cells) | IC50 [1] |
| --- | --- | --- |
| C[N+]1(CCOc2ccc(CC(=O)NS(C)(=O)=O)cc2)CC(CN[C@@H]2C[C@H]2c2ccccc2)C1 (stereo partly drawn) [Example 98] | > 1000 nM | – |
| Brc1ccc(NCCN2CCC(N[C@@H]3C[C@H]3c3ccccc3)CC2)cc1 [Example 33, 1-(2-((4-bromophenyl)amino)ethyl)-N-((1R,2S)-2-phenylcyclopropyl)piperidin-4-amine] | < 1 nM | < 1 nM |
